Data: US6623933B1 (priority 1999, dated 2003)
pEC50: −log10 of the molar value. Entries after “also recorded” stand apart in the source; their conditions may differ. Counter-ions that a name gives are not always drawn. Like-named read-outs stand apart in the source and are kept apart here.

Key:
[1] = test system: primary cultures of rat hippocampal neurons; test: NMDA-induced neuronal death, trypan blue exclusion; format: cell-based; settings: for exacerbation of NMDA-induced neuronal death: acute NMDA, steroid 100 μM (pregnenolone 20 μM); for inhibition of NMDA-induced neuronal death: acute 30 μM NMDA, steroid 100 μM (3α5β 50 μM)
Method: (§1) Principally neuronal cultures were prepared from hippocampal tissue of fetal Sprague-Dawley rats on day 18 of embryonic development, as previously described (Brewer et al., Brain Research 494: 65-74 (1989)). Briefly, hippocampal cells were dissociated by trituration in Ca^2+/Mg^2+-free Hank's basic salt solution (Gibco) supplemented with 4.2 mM bicarbonate, 1 mM sodium pyruvate, 20 mM HEPES, 3 mg/ml bovine serum albumin (BSA). Dissociated cells were then pelleted by centrifugation (500×g, 4 min). […] Cells were then plated onto poly-L-lysine-coated 24-well culture dishes (Nunclon) at a density of 15,000 cell/cm^2 and maintained in a humidified atmosphere containing 5% CO2/95% air at 37° C. After 48 h, nonneuronal cell division was inhibited by a 48 h exposure to 1 μM cytosine arabinoside. Cultures were subsequently maintained in serum-free DMEM plus defined components and were used for experiments 16 to 24 days after plating.
(§2) Steroids were dissolved in DMSO (0.5% final concentration), and all treatment media contained 0.5% DMSO. […] Following exposure, cultures were washed 3 times with medium from sister cultures (conditioned medium). After the final wash, steroid or vehicle was reintroduced. Drugs were added to cultures in 25 μl of conditioned medium to yield a final volume of 0.25 ml per well. Except where otherwise noted, final steroid concentration was 100 μM.
The ability of neurons to exclude trypan blue was used to quantitate cell viability (Dawson et al., Proc Natl Acad Sci USA 88: 6368-6371 (1991)). […] Cultures were then fixed with 4% paraformaldehyde in PBS for 30 min, at whichtime the fixative was replaced with PBS. The number of stained and unstained neurons were counted in 4 high-power fields per culture well, using an inverted phase contrast microscope under both bright field and phase contrast settings. Experiments were performed in triplicate, and all assessments were made with the experimenter blind to the treatment of each culture well. Percent cell death is expressed as follows: (number of trypan blue stained neurons)/(total number of neurons)×100%.
(§3) All data are expressed as mean±standard error of the mean. Statistical significance was evaluated using 95% confidence limits unless otherwise noted.

[2] = target: T1, NR1100+NR2A NMDA receptor (Rattus norvegicus, UniProt P35439+Q00959); test: NMDA-induced currents, Xenopus oocytes, Example 1; format: cell-based; settings: for effect on NMDA induced current: NR1100+NR2A, sulfate
T1 construct: expressed in transfected cells; host or cells: Xenopus oocytes co-injected with NR1100 and NR2A cRNA
T1 sequence (Q00959 23-1464, other chains not shown): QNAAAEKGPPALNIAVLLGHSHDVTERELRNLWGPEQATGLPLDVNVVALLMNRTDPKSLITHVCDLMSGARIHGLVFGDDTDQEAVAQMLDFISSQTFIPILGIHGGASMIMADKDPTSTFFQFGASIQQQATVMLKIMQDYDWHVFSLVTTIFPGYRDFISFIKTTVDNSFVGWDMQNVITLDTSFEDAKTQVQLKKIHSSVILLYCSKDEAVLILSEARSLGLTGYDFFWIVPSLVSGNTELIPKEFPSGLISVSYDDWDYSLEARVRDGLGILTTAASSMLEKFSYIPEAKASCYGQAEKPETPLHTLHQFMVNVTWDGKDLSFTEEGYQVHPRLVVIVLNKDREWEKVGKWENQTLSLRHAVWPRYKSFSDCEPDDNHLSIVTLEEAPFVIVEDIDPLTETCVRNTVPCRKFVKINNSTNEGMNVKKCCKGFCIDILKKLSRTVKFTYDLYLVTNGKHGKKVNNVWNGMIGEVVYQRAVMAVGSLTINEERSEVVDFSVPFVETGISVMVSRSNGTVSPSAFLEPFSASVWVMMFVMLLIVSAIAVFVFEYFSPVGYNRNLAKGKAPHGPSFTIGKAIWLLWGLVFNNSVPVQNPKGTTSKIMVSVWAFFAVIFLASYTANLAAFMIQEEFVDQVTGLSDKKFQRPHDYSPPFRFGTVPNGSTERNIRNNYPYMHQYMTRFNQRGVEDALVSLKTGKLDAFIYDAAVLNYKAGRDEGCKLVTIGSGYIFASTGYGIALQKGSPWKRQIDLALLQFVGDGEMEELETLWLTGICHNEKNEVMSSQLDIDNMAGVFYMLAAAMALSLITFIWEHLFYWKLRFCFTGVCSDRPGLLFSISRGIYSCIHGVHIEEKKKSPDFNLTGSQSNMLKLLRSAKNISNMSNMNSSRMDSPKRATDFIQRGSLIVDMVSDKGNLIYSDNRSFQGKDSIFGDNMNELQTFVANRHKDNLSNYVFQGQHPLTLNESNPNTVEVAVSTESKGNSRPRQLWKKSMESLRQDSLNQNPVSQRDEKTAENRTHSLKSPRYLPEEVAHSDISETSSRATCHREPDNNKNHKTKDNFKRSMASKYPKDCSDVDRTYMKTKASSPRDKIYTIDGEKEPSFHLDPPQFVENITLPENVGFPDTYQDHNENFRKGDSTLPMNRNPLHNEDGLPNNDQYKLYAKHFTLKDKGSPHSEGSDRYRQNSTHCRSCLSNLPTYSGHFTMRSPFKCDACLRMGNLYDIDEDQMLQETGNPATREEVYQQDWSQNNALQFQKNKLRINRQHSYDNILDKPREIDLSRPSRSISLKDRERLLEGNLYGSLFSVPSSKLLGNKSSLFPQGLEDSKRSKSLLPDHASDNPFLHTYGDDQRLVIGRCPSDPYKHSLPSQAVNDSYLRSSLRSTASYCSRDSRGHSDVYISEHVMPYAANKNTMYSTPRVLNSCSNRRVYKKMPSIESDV
Description: (§4) Plasmids were obtained from the following individuals: Dr. Suzanne Zukin (Albert Einstein College of Medicine, Bronx, N.Y.), NR1100; Dr. Shigetada Nakanishi (Kyoto University Faculty of Medicine, Kyoto, Japan), NR2A; Dr. Stephen Heinemann (Salk Institute, San Diego, Calif.), GluR1 (flop), GluR3 (flop), and GluR6. Plasmids were linearized with BamH1 (NR1100), XhoI (NR2A, GluR1, GluR3) or XbaI (GluR6) prior to in vitro transcription with T3 (GluR1, GluR3, GluR6) or T7 (NR1100, NR2A) RNA polymerase using the Message Machine kit (Ambion, Austin, Tex.). […] RNA solutions (50-70 nl) were injected into oocytes for delivery of NR1100 (5 ng), NR1100:NR2A (1:10 ng), GluR1 (5 ng). GluR3 (5 ng), or GluR6 (20 ng). Oocytes were incubated in ND96 at 18-20° C. for 3-7 days prior to electrophysiological recording.
(§5) Steroid solutions were prepared as 70-100 mM frozen stocks in dimethyl sulfoxide (DMSO). The final DMSO concentration of all recording solutions was between 0.1% to 0.5% and was constant within an experiment.
(§6) Perfusion control and data acquisition were carried out using an automated oocyte electrophysiology workstation that was developed for the rapid collection of concentration-response data and real-time waveform analysis (Yaghoubi et al., Soc. Neurosci. Abstr. 20: 1109 (1995)). This system is implemented on a Macintosh IIci computer (Apple Computer, Cupertino, Calif.) equipped with MacA-DIOS II data acquisition and control hardware (GW Instruments, Somerville, Mass.). Drug application is controlled by the computer through a series of valves, using custom-written software based on the SuperScope II development environment, improving the efficiency and reproducibility of data collection. Experiments were carried out using an Axoclamp-2A voltage clamp amplifier (Axon Instruments, Foster City, Calif.) in two-electrode voltage clamp mode. Intracellular microelectrodes (1-3 MΩ) were filled with 3 M KCl. […] Membrane potential was clamped at −60 to −70 mV and stepped to −100 mV at the start of data acquisition unless otherwise stated. […] Current and voltage recordings were digitized at 100 Hz for analysis. GluR6 injected oocytes were treated for 10 min with 10 μg/ml concanavalin A to prevent fast desensitization.
(§7) Results are expressed as mean±S.E.M. Statistical comparisons were made using Student's t-test.

[3] = test system: NMDA receptor (chick spinal cord neurons); settings: Park-Chung et al. 1997, cited from earlier work
[4] = target: T1, NR1100+NR2A NMDA receptor; test: NMDA-induced current (INMDA), Xenopus oocytes, Example 2; format: cell-based; settings: 100 μM NMDA, 100 μM steroid
Method: NR1100 (NR1G) and NR2A clones were kindly provided by Dr. R. S. Zukin (Albert Einstein College of Medicine, New York, N.Y.) and Dr. S. Nakanishi (Faculty of Medicine, Kyoto University, Kyoto, Japan), respectively. mRNA was prepared through in vitro transcription of NR1100 and NR2A cDNAs using the mMessage mMachine kit (Ambion, Tex.). On the day following isolation, batches of 20-40 selected Xenopus oocytes were injected with 50 nl of prepared RNA solution (0.5 ng NR1100 and 5 ng of NR2A mRNA/oocyte). Oocytes were maintained in glass petri dishes containing Barth's solution (84 mM NaCl, 1 mM KCl, 2.4 mM NaHCO3, 0.82 mM MgSO4, 0.41 mM CaCl2, 0.33 mM Ca(NO3)2, 2.5 mM pyruvate, 0.1 mg/ml gentamycin, 7.5 mM Tris/HCl, pH 7.4) in an incubator at 18° C. Oocytes were used for electrophysiological experiments 4-10 days after injection.
Recordings from oocytes were obtained using the two electrode voltage-clamp mode with an Axoclamp-2A amplifier (Axon Instruments). The resistance of microelectrodes, pulled from glass capillaries and filled with 3 M KCl solution, was 2.5-3.5 M. Membrane potential was clamped at −70 mV. Drugs were applied by a gravity-driven external perfusion system. Drug application and data acquisition were carried out with custom-written software implemented in the SuperScopeII programming language (GW Instruments, Somerville, Mass.).
The degree of modulation of NMDA-induced Ca^2+ influx, cell death, and currents is expressed as the percent change, defined as (I′/I−1)×100%, where I and I′ are the NMDA-induced responses in the absence and presence of modulator, respectively. All data are expressed as mean±standard error of the mean. Statistical significance was evaluated using 95% confidence limits unless otherwise noted.

[5] = test system: primary cultures of rat hippocampal neurons; test: NMDA-induced increase in [Ca2+]i, Fluo-3 AM; format: cell-based; settings: for reduction of NMDA-induced rise in [Ca2+]i: steroid 100 μM (3α5β 50 μM)
Method: as §1
DMSO was also added to controls to maintain a constant final DMSO concentration of […].
as §3

[6] = Precipitation in assay buffer / culture medium; format: physicochemical; settings: 0.5% DMSO, above 50 μM (3α5β) and 20 μM (pregnenolone)
Method: Steroids were initially dissolved in 100% DMSO, then diluted into assay buffer at a final DMSO concentration of 0.5% and sonicated for 20 min. All other solutions also contained 0.5% DMSO. Except where otherwise noted, the final steroid concentration was 100 μM.
as §2

GluR6 kainate receptor = target: T2, GluR6 kainate receptor (Rattus norvegicus, UniProt P42260); test: Kainate-induced currents, Xenopus oocytes injected with GluR6 cRNA; format: cell-based
T2 construct: expressed in transfected cells; host or cells: Xenopus oocytes injected with GluR6 cRNA (concanavalin A treated)
T2 sequence (P42260 32-908): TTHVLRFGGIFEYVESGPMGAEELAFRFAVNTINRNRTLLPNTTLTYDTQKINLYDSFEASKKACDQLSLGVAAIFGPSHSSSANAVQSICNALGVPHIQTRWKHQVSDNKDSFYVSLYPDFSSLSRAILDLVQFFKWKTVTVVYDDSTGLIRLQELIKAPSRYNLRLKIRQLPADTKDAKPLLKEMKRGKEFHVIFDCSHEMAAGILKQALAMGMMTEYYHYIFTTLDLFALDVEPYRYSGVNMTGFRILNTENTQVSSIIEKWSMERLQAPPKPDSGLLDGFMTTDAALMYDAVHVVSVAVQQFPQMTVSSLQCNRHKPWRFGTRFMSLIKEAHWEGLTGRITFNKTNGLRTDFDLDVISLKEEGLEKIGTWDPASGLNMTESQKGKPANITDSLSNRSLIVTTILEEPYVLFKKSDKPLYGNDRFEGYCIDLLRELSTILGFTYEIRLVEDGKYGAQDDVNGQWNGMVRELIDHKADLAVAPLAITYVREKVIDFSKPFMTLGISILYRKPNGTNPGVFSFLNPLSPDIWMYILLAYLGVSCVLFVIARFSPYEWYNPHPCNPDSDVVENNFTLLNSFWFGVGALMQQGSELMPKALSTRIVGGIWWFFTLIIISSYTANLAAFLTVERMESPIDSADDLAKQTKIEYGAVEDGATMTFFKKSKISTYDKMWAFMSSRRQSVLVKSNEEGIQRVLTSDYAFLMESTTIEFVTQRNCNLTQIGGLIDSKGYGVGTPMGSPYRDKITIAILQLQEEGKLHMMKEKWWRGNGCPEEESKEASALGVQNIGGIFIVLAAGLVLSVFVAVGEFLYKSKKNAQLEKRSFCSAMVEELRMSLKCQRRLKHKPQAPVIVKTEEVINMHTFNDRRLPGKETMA
Description: as §4, §5, §6, §7

GluR3 AMPA receptor = target: T3, GluR3 AMPA receptor (Rattus norvegicus, UniProt P19492); test: Kainate-induced currents, Xenopus oocytes injected with GluR3 cRNA; format: cell-based
T3 construct: expressed in transfected cells; host or cells: Xenopus oocytes injected with GluR3 cRNA
T3 sequence (P19492 23-888): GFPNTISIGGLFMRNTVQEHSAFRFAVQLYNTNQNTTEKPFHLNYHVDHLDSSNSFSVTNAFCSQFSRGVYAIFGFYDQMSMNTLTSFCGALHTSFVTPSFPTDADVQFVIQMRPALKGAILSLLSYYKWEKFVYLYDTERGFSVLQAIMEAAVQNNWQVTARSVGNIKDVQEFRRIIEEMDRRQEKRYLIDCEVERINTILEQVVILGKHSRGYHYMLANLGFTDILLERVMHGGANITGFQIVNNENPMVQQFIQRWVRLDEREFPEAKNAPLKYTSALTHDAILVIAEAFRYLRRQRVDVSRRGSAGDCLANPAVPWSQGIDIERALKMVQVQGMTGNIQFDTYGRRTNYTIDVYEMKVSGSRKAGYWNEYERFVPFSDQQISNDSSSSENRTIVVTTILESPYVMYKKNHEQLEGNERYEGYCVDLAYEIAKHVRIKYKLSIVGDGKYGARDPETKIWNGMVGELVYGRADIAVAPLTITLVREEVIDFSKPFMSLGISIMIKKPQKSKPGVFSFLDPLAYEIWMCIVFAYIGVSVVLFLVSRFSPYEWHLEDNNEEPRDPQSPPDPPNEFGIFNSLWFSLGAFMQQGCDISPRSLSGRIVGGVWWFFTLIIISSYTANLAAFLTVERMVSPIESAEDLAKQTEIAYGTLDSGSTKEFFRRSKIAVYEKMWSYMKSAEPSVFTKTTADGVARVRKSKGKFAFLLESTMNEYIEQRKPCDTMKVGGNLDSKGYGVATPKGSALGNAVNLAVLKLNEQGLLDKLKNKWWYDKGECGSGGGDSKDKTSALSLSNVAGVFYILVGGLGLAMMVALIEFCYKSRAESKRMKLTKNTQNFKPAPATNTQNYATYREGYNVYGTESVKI
Description: as §4, §5, §6, §7

GluR1 AMPA receptor = target: T4, GluR1 AMPA receptor (Rattus norvegicus, UniProt P19490); test: Kainate-induced currents, Xenopus oocytes injected with GluR1 cRNA; format: cell-based
T4 construct: expressed in transfected cells; host or cells: Xenopus oocytes injected with GluR1 cRNA
T4 sequence (P19490 19-907): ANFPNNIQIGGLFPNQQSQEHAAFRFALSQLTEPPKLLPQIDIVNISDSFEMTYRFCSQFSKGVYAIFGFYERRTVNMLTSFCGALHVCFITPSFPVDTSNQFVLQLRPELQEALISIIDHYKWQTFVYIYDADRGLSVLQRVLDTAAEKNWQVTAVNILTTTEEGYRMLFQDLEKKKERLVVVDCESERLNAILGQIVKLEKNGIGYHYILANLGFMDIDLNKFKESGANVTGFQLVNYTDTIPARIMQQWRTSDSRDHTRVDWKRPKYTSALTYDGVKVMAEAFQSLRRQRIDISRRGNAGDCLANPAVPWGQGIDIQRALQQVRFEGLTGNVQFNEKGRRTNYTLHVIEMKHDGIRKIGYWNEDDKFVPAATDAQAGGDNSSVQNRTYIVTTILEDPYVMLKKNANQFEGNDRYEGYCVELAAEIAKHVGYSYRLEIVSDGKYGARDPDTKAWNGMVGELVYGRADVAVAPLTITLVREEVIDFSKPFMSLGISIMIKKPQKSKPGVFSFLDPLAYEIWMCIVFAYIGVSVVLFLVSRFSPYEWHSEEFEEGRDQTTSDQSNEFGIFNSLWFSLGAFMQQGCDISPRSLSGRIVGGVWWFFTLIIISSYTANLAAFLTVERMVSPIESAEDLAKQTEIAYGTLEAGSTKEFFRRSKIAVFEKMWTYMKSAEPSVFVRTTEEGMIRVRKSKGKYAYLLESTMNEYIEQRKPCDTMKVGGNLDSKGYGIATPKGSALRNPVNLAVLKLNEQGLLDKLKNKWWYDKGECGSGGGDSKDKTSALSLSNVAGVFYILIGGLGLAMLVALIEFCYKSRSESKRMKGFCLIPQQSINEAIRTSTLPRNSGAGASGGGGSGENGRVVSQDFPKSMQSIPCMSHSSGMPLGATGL
Description: as §4, §5, §6, §7

NR1100 NMDA receptor = target: T5, NR1100 NMDA receptor (Rattus norvegicus, UniProt P35439); test: NMDA-induced currents, Xenopus oocytes injected with NR1100 cRNA only, Example 1; format: cell-based
T5 construct: expressed in transfected cells; host or cells: Xenopus oocytes injected with NR1100 cRNA only
Description: as §4, §5, §6, §7

Compound	exacerbation of NMDA-induced neuronal death [1]	potentiation of INMDA [4]	inhibition of NMDA-induced neuronal death [1]	inhibition of INMDA [4]	reduction of NMDA-induced rise in [Ca2+]i ([5]; 5 μM NMDA)	also measured
CC(=O)[C@H]1CC[C@H]2[C@@H]3CC[C@H]4C[C@@H](OS(=O)(=O)O)CC[C@]4(C)[C@H]3CC[C@]12C [3β5αS, 3β-hydroxy-5α-pregnan-20-one sulfate]	40±7%	–	–	–	–	effect on NMDA induced current [2]: 33±13%; modulation of NMDA-induced current ([3]; sulfate): weakly potentiates
CC(=O)[C@H]1CC[C@H]2[C@@H]3CC=C4C[C@@H](O)CC[C@]4(C)[C@H]3CC[C@]12C [pregnenolone]	ineffective	5±2%	–	–	–	potentiation of NMDA-induced Ca2+ accumulation [5]: without effect; precipitation at higher concentrations [6]: higher concentrations tended to precipitate
CC(=O)[C@H]1CC[C@H]2[C@@H]3CC[C@H]4C[C@@H](OS(=O)(=O)O)CC[C@]4(C)[C@H]3CC[C@]12C [3α5αS, 3α-hydroxy-5α-pregnan-20-one sulfate]	–	–	47±12%	–	–	effect on NMDA induced current [2]: 8±8%; modulation of NMDA-induced current ([3]; sulfate): weaker inhibitor
CC(=O)C1CCC2C3CC=C4C[C@@H](OC(=O)CCC(=O)O)CC[C@]4(C)C3CC[C@]12C (stereo partly drawn) [PHS, pregnenolone hemisuccinate]	–	more than doubling the response	–	–	–	Percentage change in kainate response (GluR6 kainate receptor): −15 ± 2(3) %; inhibition of the response to kainate (GluR6 kainate receptor): 15%; Percentage change in NMDA response ([2]; NR1100 + NR2A, steroid 100 μM, 100 μM NMDA, −100 mV): +118 ± 16(16) %; Percentage change in kainate response (GluR3 AMPA receptor): −72 ± 3(3) %; Percentage change in kainate response (GluR1 AMPA receptor): −71 ± 1(4) %
CC(=O)[C@H]1CC[C@H]2[C@@H]3CC=C4C[C@@H](OC(=O)C(=O)O)CC[C@]4(C)[C@H]3CC[C@]12C [PHO, pregnenolone hemioxylate]	48±12%	little activity; also recorded: does not enhance the NMDA-induced current	–	–	–	potentiation of NMDA-induced Ca2+ accumulation [5]: 62±17%
CC(=O)[C@H]1CC[C@H]2[C@@H]3CC[C@@H]4C[C@@H](OS(=O)(=O)O)CC[C@]4(C)[C@H]3CC[C@]12C [3β5βS, epipregnanolone sulfate]	–	–	86±3%	–	–	pEC50 [2]: 4.10; modulation of NMDA-induced current [3]: strong inhibitors; pEC50 (NR1100 NMDA receptor): 3.84
CC(=O)[C@H]1CC[C@H]2[C@@H]3CC[C@@H]4C[C@H](OC(=O)C(=O)O)CC[C@]4(C)[C@H]3CC[C@]12C [3α5βHO, pregnanolone hemioxylate]	–	–	35±6%	about equally effective in inhibiting INMDA	approximately 40%	–
CC(=O)[C@H]1CC[C@H]2[C@@H]3CC=C4C[C@@H](OC(=O)CCCC(=O)O)CC[C@]4(C)[C@H]3CC[C@]12C [PHG, pregnenolone hemiglutarate]	54±9%	more than doubling the response	–	–	–	potentiation of NMDA-induced Ca2+ accumulation [5]: 146±29%
CC(=O)[C@H]1CC[C@H]2[C@@H]3CC[C@@H]4C[C@H](OC(=O)CCCC(=O)O)CC[C@]4(C)[C@H]3CC[C@]12C [3α5βHG, pregnanolone hemiglutarate]	–	–	38±6%	about equally effective in inhibiting INMDA	approximately 40%	–
CC(=O)[C@H]1CC[C@H]2[C@@H]3CC=C4C[C@@H](OC=O)CC[C@]4(C)[C@H]3CC[C@]12C [PF, pregnenolone formate]	ineffective	little activity	–	–	–	potentiation of NMDA-induced Ca2+ accumulation ([5]; 5 μM NMDA, steroid 100 μM (pregnenolone 20 μM)): without effect
CC(=O)[C@H]1CC[C@H]2[C@@H]3CC[C@@H]4C[C@H](O)CC[C@]4(C)[C@H]3CC[C@]12C [3α5β, pregnanolone]	–	–	do not exhibit significant neuroprotective activity	inactive	no significant effect	precipitation at higher concentrations [6]: higher concentrations tended to precipitate
pregnanolone formate [3α5βF]	–	–	do not exhibit significant neuroprotective activity	significantly inhibits INMDA	no significant effect	–
